Experimental data reported in US20070219214A1, “Dual NK2/NK3-antagonists, pharmaceutical compositions comprising them, and processes for their preparation” (Solvay pharmaceuticals GmbH, priority 2006, published 2007).

What was measured:
human NK2-receptor [1] = molecular target: T1, human NK2-receptor (Homo sapiens, UniProt P21452); experiment: Functional cellular test, Ca2+ measurements using FLIPR for NK2 activity;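 further: CHO cells stably expressing the human receptor, loaded with a calcium dye, antagonist inhibition of ligand-evoked intracellular calcium rise read as peak fluorescence change on FLIPR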
T1 sequence (P21452 1-398): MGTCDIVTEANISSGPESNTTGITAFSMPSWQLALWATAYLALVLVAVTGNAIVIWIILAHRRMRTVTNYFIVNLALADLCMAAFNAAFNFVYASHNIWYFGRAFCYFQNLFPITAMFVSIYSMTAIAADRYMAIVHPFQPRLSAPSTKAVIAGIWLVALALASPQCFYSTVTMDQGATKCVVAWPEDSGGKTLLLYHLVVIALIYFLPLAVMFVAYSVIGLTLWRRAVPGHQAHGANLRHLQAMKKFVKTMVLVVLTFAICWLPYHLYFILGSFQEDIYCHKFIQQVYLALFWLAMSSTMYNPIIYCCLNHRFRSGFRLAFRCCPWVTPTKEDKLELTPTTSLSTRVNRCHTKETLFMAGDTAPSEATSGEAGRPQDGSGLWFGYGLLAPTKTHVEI
Protocol: Functional Cellular Tests of the NK1-, NK2- and NK3-Antagonism
Functional cellular tests of the antagonistic effect of the compounds of the present invention on the human tachykinin receptors were performed in CHO cells expressing the recombinant human NK1, NK2 or NK3-receptor. In these tests the inhibition of ligand-induced increase in mobilization of intracellular calcium and inhibition of ligand-induced phosphorylation of mitogen activated protein kinase (MAPK) were determined, which can be used as a measure of functional activity of tachykinin-antagonists. Additionally, the antagonistic properties of reference compounds on the different tachykinin receptors were characterized for comparison.
The effects of test compounds were assessed using Chinese hamster ovary (CHO) fibroblast cells, stably expressing cloned human NK1, NK2 or NK3-receptors. The NK receptor is coupled to Gq. The activation of the Gq protein by ligand binding to the receptor leads to a mobilization of intracellular calcium and phosphorylation of MAPK. Both systems were used to determine functional effects of the test compounds.
Ca^2+ Measurements Using FLIPR for NK1 and NK2 Activity
For tests, cells were seeded 24 hours prior to the experiment into black 96-well microplates. The cell density was 2.2×10^4 cells/well. All steps were done under sterile conditions. In order to observe changes in intracellular calcium levels, cells were loaded with a calcium-sensitive dye. This dye (FLUO-4, from Molecular Probes) excites at 488 nm, and emits in the 500 nm to 560 nm range, only if a complex with calcium is formed. For the dye loading the growth-medium was aspirated out of the well without disturbing the confluent cell layer and 100 μl loading medium (HBSS, 4 μM FLUO-4, 0.005% (w/v) pluronic acid, 2.5 mM probenecid, 20 mM HEPES, pH 7.4) was dispensed into each well using an automatic pipettor system (Multidrop, Labsystems). Pluronic acid was added to increase dye solubility and dye uptake into the cells, whereas probenecid, an anion exchange inhibitor, was added to the loading medium to increase dye retention in the cells. The cells were incubated in a 5% CO2 incubator at 37° C. for 40 minutes. After dye loading, the cells were washed three times with wash-buffer (HBSS, 2.5 mM probenecid, 20 mM HEPES, pH 7.4) to reduce basal fluorescence. In the last washing step the buffer was aspirated and replaced with 100 μl washing buffer. […] The FLIPR setup parameters were set to 0.4 sec exposure length, filter 1, 50 μl fluid addition, pipettor height at 125 μl, dispense speed 40 μl/sec without mixing. Maximal fluorescence changes were obtained using the statistic function of the FLIPR software, and data plotted using GraphPad Prism 4. All points were expressed as a percentage inhibition of the control agonist. IC50 values were determined using sigmoidal dose-response curve fitting. Antagonist potencies (pA2) values were calculated using equation: pA2=−log(IC50/(1+[L]/EC50)),

human NK2-receptor [2] = molecular target: T1, human NK2-receptor; experiment: Binding potency of the test substances to NK2-receptors in vitro ([3H]-SR 48968 displacement); parameters: expressed in transfected cells; host or cells: CHO cells (membrane preparation); settings: human NK2-receptor in CHO cell membranes, [3H]-SR 48968 (saredutant); average of at least three measurements; read-out: pKi, binding potency to NK2-receptors (converted)
Text: 2. Determination of the Binding Potency of the Test Substances to NK2-Receptors in Vitro
The affinity of test compounds for NK2-receptors can be determined by measuring the ability of the test compound to displace a radiolabeled ligand from its specific binding site.
(§1) The radiolabel used in this assay is [^3H]-SR 48968 (saredutant). Receptors were obtained from membrane preparations of CHO-cells (Chinese Hamster Ovary cells), in which the human NK2-receptor was stably expressed. Membranes were incubated with [^3H]-saredutant in the absence or presence of test compounds at different concentrations, diluted in a buffer system. Separation of bound radioactivity from free radioactivity was done by filtration through glass fiber filters (Packard GF/B) with several washings with ice-cold buffer solution. Bound radioactivity was measured with a liquid scintillation counter (total binding). Unspecific binding was determined by incubation with an excess (0.1 μmol/l) of unlabeled saredutant. Specific binding is obtained by subtracting the unspecific binding from the total binding.
(§2) Radioactivity of the specific binding was plotted against the concentration of the test compound and IC50 values, i.e. the concentration of test compound by which 50% of the radioligand is displaced, were calculated. The inhibition constant (Ki) was calculated according to the Cheng-Prusoff equation, and listed as its negative logarithmic value (pKi). The pKi value describes the potency of a test compound to bind to a receptor.
(§3) The average result of all measurements is listed above.

human NK3 receptor = molecular target: T2, human NK3 receptor (Homo sapiens, UniProt P29371); experiment: Binding potency of the test substances to NK3-receptors in vitro ([3H]-SR 142801 displacement); parameters: expressed in transfected cells; host or cells: CHO cells (membrane preparation); settings: human NK3-receptor in CHO cell membranes, [3H]-SR 142801 (osanetant); average of at least three measurements; read-out: pKi, binding potency to NK3-receptors (converted)
T2 sequence (P29371 1-465): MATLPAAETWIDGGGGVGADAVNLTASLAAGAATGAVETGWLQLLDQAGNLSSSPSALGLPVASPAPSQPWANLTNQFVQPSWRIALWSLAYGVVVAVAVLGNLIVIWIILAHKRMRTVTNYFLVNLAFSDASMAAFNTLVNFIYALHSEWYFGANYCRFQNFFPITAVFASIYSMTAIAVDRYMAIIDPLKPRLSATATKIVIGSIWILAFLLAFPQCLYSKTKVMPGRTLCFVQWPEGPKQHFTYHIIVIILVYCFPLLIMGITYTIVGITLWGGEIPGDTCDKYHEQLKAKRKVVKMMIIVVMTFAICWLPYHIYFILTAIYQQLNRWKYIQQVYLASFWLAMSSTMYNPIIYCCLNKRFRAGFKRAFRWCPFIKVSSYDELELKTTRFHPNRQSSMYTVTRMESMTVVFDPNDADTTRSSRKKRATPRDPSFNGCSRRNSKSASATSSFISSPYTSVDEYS
Text: 3. Determination of the Binding Potency of the Test Substances to NK3-Receptors in Vitro
The affinity of test compounds for NK3-receptors can be determined by measuring the ability of the test compound to displace a radiolabeled ligand from its specific binding site.
as §1, with “142801 (osanetant).” for “48968 (saredutant).”, “NK3-receptor” for “NK2-receptor”, “[^3H]-osanetant” for “[^3H]-saredutant”, “(1” for “(0.1”, “osanetant.” for “saredutant.”
as §2, with “(pKi)” for “(pKi).”
as §3

Compound: CN(C)C(=O)C1(N2CCCCC2)CCN(CCC(CN(C)C(=O)c2ccc3occc3c2)c2ccc(Cl)c(Cl)c2)CC1 (stereo not drawn) [compound 68]
- Kb (human NK2-receptor [1]): 0.01 µM
- Ki (human NK2-receptor [2]): 0.002 µM
- Ki (human NK3 receptor): 0.01 µM

Compound: CN(C)C(=O)C1(N2CCCCC2)CCN(CCC(CN(C)C(=O)c2ccc(Cl)cc2)c2ccc(Cl)c(Cl)c2)CC1 (stereo not drawn) [compound 84]
- Ki (human NK2-receptor [2]): 0.0126 µM
- Ki (human NK3 receptor): 0.0398 µM

Compound: CN(C)C(=O)C1(N2CCCCC2)CCN(CCC(CN(C)C(=O)CCc2ccc(O)cc2)c2ccc(Cl)c(Cl)c2)CC1 (stereo not drawn) [compound 29]
- Ki (human NK2-receptor [2]): 0.00251 µM
- Ki (human NK3 receptor): 0.0501 µM

Compound: CN(C)C(=O)C1(N2CCCCC2)CCN(CCC(CN(C)C(=O)c2c(Cl)cccc2Cl)c2ccc(Cl)c(Cl)c2)CC1 (stereo not drawn) [compound 76]
- Ki (human NK2-receptor [2]): 0.0158 µM
- Ki (human NK3 receptor): 0.0501 µM

Compound: CN(C)C(=O)C1(N2CCCCC2)CCN(CCC(CN(C)C(=O)c2ccncc2)c2ccc(Cl)c(Cl)c2)CC1 (stereo not drawn) [compound 44]
- Ki (human NK2-receptor [2]): 0.00501 µM
- Ki (human NK3 receptor): 0.0316 µM

Compound: CN(C)C(=O)C1(N2CCCCC2)CCN(CCC(CN(C)C(=O)c2ccccc2C(=O)O)c2ccc(Cl)c(Cl)c2)CC1 (stereo not drawn) [compound 25]
- Ki (human NK2-receptor [2]): 0.00501 µM
- Ki (human NK3 receptor): 0.0631 µM

Compound: CN(C)C(=O)C1(N2CCCCC2)CCN(CCC(CN(C)C(=O)C2CC2)c2ccc(Cl)c(Cl)c2)CC1 (stereo not drawn) [compound 22]
- Ki (human NK2-receptor [2]): 0.0158 µM
- Ki (human NK3 receptor): 0.0501 µM

Compound: CN(C)C(=O)C1(N2CCCCC2)CCN(CCC(CN(C)C(=O)c2ccc(OC(F)(F)F)cc2)c2ccc(Cl)c(Cl)c2)CC1 (stereo not drawn) [compound 26]
- Ki (human NK2-receptor [2]): 0.00501 µM
- Ki (human NK3 receptor): 0.0501 µM

Compound: CN(C)C(=O)C1(N2CCCCC2)CCN(CCC(CN(C)C(=O)c2c(F)cccc2F)c2ccc(Cl)c(Cl)c2)CC1 (stereo not drawn) [compound 74]
- Ki (human NK2-receptor [2]): 0.00398 µM
- Ki (human NK3 receptor): 0.0251 µM

Compound: CN(C)C(=O)C1(N2CCCCC2)CCN(CCC(CN(C)C(=O)c2ccc(Cl)c(Cl)c2)c2ccc(Cl)c(Cl)c2)CC1 (stereo not drawn) [compound 81]
- Ki (human NK2-receptor [2]): 0.0126 µM
- Ki (human NK3 receptor): 0.0794 µM

Compound: CC(=O)N1CCC(C(=O)N(C)CC(CCN2CCC(C(=O)N(C)C)(N3CCCCC3)CC2)c2ccc(Cl)c(Cl)c2)CC1 (stereo not drawn) [compound 52]
- Kb (human NK2-receptor [1]): 0.00398 µM
- Ki (human NK2-receptor [2]): 0.0158 µM
- Ki (human NK3 receptor): 0.0126 µM

Compound: COc1ccc(C(=O)N(C)CC(CCN2CCC(C(=O)N(C)C)(N3CCCCC3)CC2)c2ccc(Cl)c(Cl)c2)cc1 (stereo not drawn) [compound 85]
- Ki (human NK2-receptor [2]): 0.0126 µM
- Ki (human NK3 receptor): 0.0501 µM

Compound: CN(C)C(=O)C1(N2CCCCC2)CCN(CCC(CN(C)C(=O)Cc2ccc(-c3ccccc3)cc2)c2ccc(Cl)c(Cl)c2)CC1 (stereo not drawn) [compound 33]
- Ki (human NK2-receptor [2]): 0.0794 µM
- Ki (human NK3 receptor): 0.0316 µM

Compound: CN(C)C(=O)C1(N2CCCCC2)CCN(CCC(CN(C)C(=O)c2ccc3ccccc3c2)c2ccc(Cl)c(Cl)c2)CC1 (stereo not drawn) [compound 32]
- Ki (human NK2-receptor [2]): 0.0158 µM
- Ki (human NK3 receptor): 0.0398 µM

Compound: CN(C)C(=O)C1(N2CCCCC2)CCN(CCC(CN(C)C(=O)c2ccccc2C(F)(F)F)c2ccc(Cl)c(Cl)c2)CC1 (stereo not drawn) [compound 77]
- Ki (human NK2-receptor [2]): 0.00316 µM
- Ki (human NK3 receptor): 0.0794 µM

Compound: CN(C)C(=O)C1(N2CCCCC2)CCN(CCC(CN(C)C(=O)c2ccc3cc[nH]c3c2)c2ccc(Cl)c(Cl)c2)CC1 (stereo not drawn) [compound 41]
- Ki (human NK2-receptor [2]): 0.00316 µM
- Ki (human NK3 receptor): 0.0158 µM

Compound: CN(C)C(=O)C1(N2CCCCC2)CCN(CC[C@H](CN(C)C(=O)c2ccccc2)c2ccccc2)CC1 [compound 94, 1′-[(3S)-4-[benzoyl(methyl)amino]-3-phenylbutyl]-N,N-dimethyl-1, 4′-bipiperidine-4′-carboxamide]
- Kb (human NK2-receptor [1]): 0.00158 µM
- Ki (human NK2-receptor [2]): 0.00316 µM

Compound: CN(C)C(=O)C1(N2CCCCC2)CCN(CCC(CN(C)C(=O)C2CC2c2ccccc2)c2ccc(Cl)c(Cl)c2)CC1 (stereo not drawn) [compound 90]
- Ki (human NK2-receptor [2]): 0.0126 µM
- Ki (human NK3 receptor): 0.0794 µM

Compound: CN(C)C(=O)C1(N2CCCCC2)CCN(CCC(CN(C)C(=O)c2ccc(C(F)(F)F)cc2)c2ccc(Cl)c(Cl)c2)CC1 (stereo not drawn) [compound 86]
- Ki (human NK2-receptor [2]): 0.0126 µM
- Ki (human NK3 receptor): 0.0631 µM

Compound: CN(C)C(=O)C1(N2CCCCC2)CCN(CCC(CN(C)C(=O)c2cc(=O)c3ccccc3o2)c2ccc(Cl)c(Cl)c2)CC1 (stereo not drawn) [compound 45]
- Ki (human NK2-receptor [2]): 0.00251 µM
- Ki (human NK3 receptor): 0.0126 µM
